Tests used:
Assay type in all cases: in vivo
Myzus persicae [1] = experiment: Activity against Myzus persicae (green peach aphid), intrinsic activity; settings: 120 h, test rate 12 ppm, 5 days after infestation
Text: Example B6: Activity Against Myzus persicae (Green Peach Aphid). Intrinsic Activity
Test compounds prepared from 10′000 ppm DMSO stock solutions were applied by pipette into 24-well microtiter plates and mixed with sucrose solution. The plates were closed with a stretched Parafilm. A plastic stencil with 24 holes was placed onto the plate and infested pea seedlings were placed directly on the Parafilm. The infested plate was closed with a gel blotting paper and another plastic stencil and then turned upside down. The samples were assessed for mortality 5 days after infestation.

Plutella xylostella = experiment: Activity against Plutella xylostella (diamond back moth), artificial diet, eggs; settings: 192 h, application rate 200 ppm, 8 days after infestation, read-out: control in at least one of the two categories (mortality or growth inhibition)
Method: Example B7: Activity Against Plutella xylostella (Diamond Back Moth)
24-well microtiter plates with artificial diet were treated with aqueous test solutions prepared from 10′000 ppm DMSO stock solutions by pipetting. After drying, Plutella eggs were pipetted through a plastic stencil onto a gel blotting paper and the plate was closed with it. The samples were assessed for mortality and growth inhibition in comparison to untreated samples 8 days after infestation.

Spodoptera littoralis = experiment: Activity against Spodoptera littoralis (Egyptian cotton leaf worm), cotton leaf discs, L1 larvae; settings: foliar, 72 h, application rate 200 ppm, 3 days after infestation, read-out: control in at least one of the three categories (mortality, anti-feedant effect, or growth inhibition)
Method: Example B8: Activity Against Spodoptera littoralis (Egyptian Cotton Leaf Worm)
Cotton leaf discs were placed onto agar in 24-well microtiter plates and sprayed with aqueous test solutions prepared from 10′000 ppm DMSO stock solutions. After drying the leaf discs were infested with five L1 larvae. The samples were assessed for mortality, anti-feeding effect, and growth inhibition in comparison to untreated samples 3 days after infestation. Control of Spodoptera littoralis by a test sample is given when at least one of the categories mortality, anti-feedant effect, and growth inhibition is higher than the untreated sample.

Chilo suppressalis = experiment: Activity against Chilo suppressalis (striped rice stemborer), artificial diet, L2 larvae; settings: 144 h, application rate 200 ppm, 6 days after infestation, read-out: control in at least one of the three categories (mortality, anti-feedant effect, or growth inhibition)
Method: Example B1: Activity Against Chilo suppressalis (Striped Rice Stemborer)
24-well microtiter plates with artificial diet were treated with aqueous test solutions prepared from 10′000 ppm DMSO stock solutions by pipetting. After drying, the plates were infested with L2 larvae (6-8 per well). The samples were assessed for mortality, anti-feeding effect, and growth inhibition in comparison to untreated samples 6 days after infestation. Control of Chilo suppressalis by a test sample is given when at least one of the categories mortality, anti-feedant effect, and growth inhibition is higher than the untreated sample.

Myzus persicae [2] = experiment: Activity against Myzus persicae (green peach aphid), feeding/contact activity; settings: 144 h, application rate 200 ppm, 6 days after infestation
Method: Example B5: Activity Against Myzus persicae (Green Peach Aphid). Feeding/Contact Activity
Sunflower leaf discs were placed onto agar in a 24-well microtiter plate and sprayed with aqueous test solutions prepared from 10′000 ppm DMSO stock solutions. After drying, the leaf discs were infested with an aphid population of mixed ages. The samples were assessed for mortality 6 days after infestation.

Diabrotica balteata = experiment: Activity against Diabrotica balteata (corn root worm), maize sprouts, L2 larvae; settings: 96 h, application rate 200 ppm, 4 days after infestation, read-out: control in at least one of the two categories (mortality or growth inhibition)
Method: Example B2: Activity Against Diabrotica Balteata (Corn Root Worm)
Maize sprouts placed onto an agar layer in 24-well microtiter plates were treated with aqueous test solutions prepared from 10′000 ppm DMSO stock solutions by spraying. After drying, the plates were infested with L2 larvae (6 to 10 per well). The samples were assessed for mortality and growth inhibition in comparison to untreated samples 4 days after infestation.

CC(NC(=O)c1cc(Cl)cc(C(F)(F)F)c1)c1nccnc1-c1ccc(=O)n(C)n1 (stereo not shown) [P7, 3-chloro-N-[1-[3-(1-methyl-6-oxo-pyridazin-3-yl)pyrazin-2-yl]ethyl]-5-(trifluoromethyl)benzamide]
≥ 80%: mortality at 12 ppm (Myzus persicae [1]) | percent control (mortality or growth inhibition) at 200 ppm (Plutella xylostella) | percent control (mortality, anti-feedant effect or growth inhibition) at 200 ppm (Spodoptera littoralis) | percent control (mortality, anti-feedant effect or growth inhibition) at 200 ppm (Chilo suppressalis) | mortality at 200 ppm (Myzus persicae [2]) | percent control (mortality or growth inhibition) at 200 ppm (Diabrotica balteata)

CC(NC(=O)c1cc(Br)cc(C(F)(F)F)c1)c1nccnc1-c1ccc(=O)n(C)n1 (stereo not shown) [P10, 3-bromo-N-[1-[3-(1-methyl-6-oxo-pyridazin-3-yl)pyrazin-2-yl]ethyl]-5-(trifluoromethyl)benzamide]
≥ 80%: mortality at 12 ppm (Myzus persicae [1]) | percent control (mortality or growth inhibition) at 200 ppm (Plutella xylostella) | percent control (mortality, anti-feedant effect or growth inhibition) at 200 ppm (Spodoptera littoralis) | percent control (mortality, anti-feedant effect or growth inhibition) at 200 ppm (Chilo suppressalis) | mortality at 200 ppm (Myzus persicae [2]) | percent control (mortality or growth inhibition) at 200 ppm (Diabrotica balteata)

CCn1nc(-n2ncnc2[C@H](C)NC(=O)c2cc(Cl)cc(S(=O)(=O)C(F)(F)F)c2)ccc1=O [P17, 3-chloro-N-[(1S)-1-[2-(1-ethyl-6-oxo-pyridazin-3-yl)-1,2,4-triazol-3-yl]ethyl]-5-(trifluoromethylsulfonyl)benzamide]
≥ 80%: mortality at 12 ppm (Myzus persicae [1]) | percent control (mortality or growth inhibition) at 200 ppm (Plutella xylostella) | percent control (mortality, anti-feedant effect or growth inhibition) at 200 ppm (Spodoptera littoralis) | percent control (mortality, anti-feedant effect or growth inhibition) at 200 ppm (Chilo suppressalis) | mortality at 200 ppm (Myzus persicae [2]) | percent control (mortality or growth inhibition) at 200 ppm (Diabrotica balteata)

C[C@@H](c1ncnn1C1=NN(C)C(=O)CC1)N(C)C(=O)c1cc(Cl)cc(S(=O)(=O)C(F)(F)F)c1 [P22, 3-chloro-N-methyl-N-[(1S)-1-[2-(1-methyl-6-oxo-4,5-dihydropyridazin-3-yl)-1,2,4-triazol-3-yl]ethyl]-5-(trifluoromethylsulfonyl) benzamide]
≥ 80%: mortality at 12 ppm (Myzus persicae [1]) | percent control (mortality or growth inhibition) at 200 ppm (Plutella xylostella) | percent control (mortality, anti-feedant effect or growth inhibition) at 200 ppm (Spodoptera littoralis) | percent control (mortality, anti-feedant effect or growth inhibition) at 200 ppm (Chilo suppressalis) | mortality at 200 ppm (Myzus persicae [2]) | percent control (mortality or growth inhibition) at 200 ppm (Diabrotica balteata)

CC(NC(=O)c1cc(C(F)(F)F)cc(C2(C#N)CC2)c1)c1nccnc1-c1ccc(=O)n(C)n1 (stereo not shown) [P24, 3-(1-cyanocyclopropyl)-N-[1-[3-(1-methyl-6-oxo-pyridazin-3-yl)pyrazin-2-yl]ethyl]-5-(trifluoromethyl) benzamide]
≥ 80%: mortality at 12 ppm (Myzus persicae [1]) | percent control (mortality or growth inhibition) at 200 ppm (Plutella xylostella) | percent control (mortality, anti-feedant effect or growth inhibition) at 200 ppm (Spodoptera littoralis) | percent control (mortality, anti-feedant effect or growth inhibition) at 200 ppm (Chilo suppressalis) | mortality at 200 ppm (Myzus persicae [2])

CC(NC(=O)c1cc(Cl)nc(C2(C#N)CC2)c1)c1nccnc1-c1ccc(=O)n(C)n1 (stereo not shown) [P34, 2-chloro-6-(1-cyanocyclopropyl)-N-[1-[3-(1-methyl-6-oxo-pyridazin-3-yl)pyrazin-2-yl]ethyl]pyridine-4-carboxamide]
≥ 80%: mortality at 12 ppm (Myzus persicae [1]) | percent control (mortality or growth inhibition) at 200 ppm (Plutella xylostella) | percent control (mortality, anti-feedant effect or growth inhibition) at 200 ppm (Spodoptera littoralis) | percent control (mortality, anti-feedant effect or growth inhibition) at 200 ppm (Chilo suppressalis) | mortality at 200 ppm (Myzus persicae [2])

CC(NC(=O)c1cc(Br)cc(C(F)(F)F)c1)c1nccnc1-c1cn(CC(F)F)c(=O)cn1 (stereo not shown) [P49, 3-bromo-N-[1-[3-[4-(2,2-difluoroethyl)-5-oxo-pyrazin-2-yl]pyrazin-2-yl]ethyl]-5-(trifluoromethyl)benzamide]
≥ 80%: mortality at 12 ppm (Myzus persicae [1]) | percent control (mortality or growth inhibition) at 200 ppm (Plutella xylostella) | percent control (mortality, anti-feedant effect or growth inhibition) at 200 ppm (Spodoptera littoralis) | percent control (mortality, anti-feedant effect or growth inhibition) at 200 ppm (Chilo suppressalis) | mortality at 200 ppm (Myzus persicae [2]) | percent control (mortality or growth inhibition) at 200 ppm (Diabrotica balteata)
